Read-outs that look alike come from different tables or passages of the source.
Experiments:
[1] = test system: TrkC; assay type: cell-based, rat; details: MeHg, Pb or paraquat
In short: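 Western blot of cell lysates or sonicated tissue in RAPI buffer, SDS-PAGE to PVDF, primary antibodies (phospho-Erk, phospho-Akt, receptor, phospho-tyrosine), HRP secondary and luminol detection. Signaling analysed in presence of the cognate ligand: EGF for EGFR, NT-3 for TrkC, HGF for c-Met.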

[2] = test system: TrkC; assay: TrkC levels in brain tissue after developmental exposure; assay type: in vivo, SJL mice; details: 100 or 250 ppb MeHg in maternal drinking water
Source text: (§1) Anti-phosphorylated Erk monoclonal, anti-Erk monoclonal, anti-TrkC polyclonal anti-Fyn polyclonal, anti-EGFR polyclonal, anti-c-Met polyclonal, anti-phospho-tyrosine monoclonal, and anti-PDGFRα polyclonal antibodies were obtained from Santa Cruz Biotechnology (Santa Cruz, Calif., United States). Anti-c-Cbl monoclonal antibody was obtained from BD PharMingen (San Diego, Calif., United States). Anti-phosphorylated Akt monoclonal and anti-Akt polyclonal antibodies were obtained from Cell Signaling Technology (Beverly, Mass., United States). Anti-phosphorylated PDGPRα polyclonal antibody was obtained from Biosource (Carlsbad, Calif., United States). The cell culture samples were collected and lysed in RAPI buffer, whereas dissected tissue samples were sonicated in RAPI buffer. Samples were resolved on SDS-PAGE gels and transferred to PVDF membranes (PerkinElmer Life Science. Wellesley, Mass., United States), After being blocked in 5% skim milk in PBS containing 0.1% Tween 20, membranes were incubated with a primary antibody, followed by incubation with an HRP-conjugated secondary antibody (Santa Cruz Biotechnology). Membranes were visualized using Western Blotting Luminol Reagent (Santa Cruz Biotechnology). […]

[3] = 14 mo of age, cited from earlier work
[4] = test system: O-2A/OPCs; assay: Intracellular ROS / redox state measurement; assay type: cell-based, rat; details: O-2A/OPCs in PDGF; MeHg, exposure levels as low as 20 nM
Description: Cells were plated in 96-well microplates and grown to about 60% continence. […] Cells were then washed once with HBSS and growth medium to remove free probe. Then, fresh growth medium was added and a baseline fluorescence reading was taken prior to treatment. For NAC pre-treatment. […] Fluorescence was measured in a Wallac 1420 Victor2 multilabel counter (PerkinElmer) using excitation and emission wavelengths of 485 nm and 535 nm, respectively, at different time courses as indicated in the figures. Results are presented as the value change from baseline by the formula (Ftexp−Ftbase)/Ftbase normalized with the control group, where Ftexp=fluorescence at any given time during the experiment in a give well and Ftbase=baseline fluorescence of the same well.

[5] = test system: EGFR; assay: EGFR levels in brain tissue after developmental exposure; assay type: in vivo, SJL mice; details: 100 or 250 ppb MeHg in maternal drinking water; 7 and 21 d after birth
Source text: as §1

[6] = Brain mercury levels in offspring after maternal drinking water exposure; assay type: in vivo, mice
Description: Six-week-old female SJL mice were treated with MeHg in their drinking water at a concentration of 100 or 250 ppb for 30-60 d prior to mating, and then throughout pregnancy and gestation. This is a level of treatment that is 75%-90% below levels generally considered to be low to moderate and is below levels that have been associated with gross defects in adult or developing animals (e.g., [69-73]).
In the present study, exposure of female mice to MeHg in their drinking water at a concentration of 250 ppb prior to conception, and maintenance of this exposure during suckling, was associated with brain mercury levels in the offspring (examined at P.14) of 50 ng/g, a fall that was precisely in agreement with predictions based on prior studies on the fall of mercury levels occurring during this period in suckling mice. […] The exposure levels of 100 and 250 ppb are 75%-90% below what has otherwise been considered to be low-dose exposure in mice.

[7] = test system: O-2A/OPCs; assay: In vivo BrdU incorporation assay with Olig2 co-labeling, corpus callosum; set-up: species or system mice; details: low-level MeHg in maternal drinking water, P14
Description: To analyze DNA synthesis in vivo, mice were injected with a single dose of 5-BrdU (50 mg/kg body weight), dissolved in 0.9% NaCl, filtered (0.2 μm), and applied intraperitoneally 2 h prior to perfusion. After removal and sectioning of brains, 40-μm free-floating sections were incubated for 2 h in 50% forraamide/2×SSC (0.3 M NaCl and 0.03 M sodium citrate) at 65° C., rinsed twice for 5 min each in 2×SSC, incubated for 30 min in 2N HCl at 37° C., and rinsed for 10 min in 0.1 M boric acid (pH 8.5) at room temperature. Several rinses in TBS were followed by incubation in TBS/0.1% Triton X-100/3% donkey serum (TBS-plus) for 30 min. Sections were then incubated with monoclonal rat anti-BrdU antibody (1:2,500; Harlan Sera-Lab, Loughborough, United Kingdom) and polyclonal rabbit anti-Olig2 in TBS-plus for 48 h at 4° C. […]
Quantification of BrdU+ cells was accomplished with unbiased counting methods by confocal microscopy. BrdU immunoreaetive nuclei were counted in one focal plane to avoid over-sampling. In corpus callosum, BrdU+ cells were counted in every sixth section (40 μm) from a coronal, series between interaural AP+5.2 mm and AP+3.0 mm in the entire extension of the rostral and medial part of the corpus callosum. Quantitative data are presented as mean percentage normalized to control animals. […]

[8] = test system: cancer cells; assay: Cancer cell viability (MTT assays), FIG. 22; assay type: cell-based; details: TMX 1-50 μM, 48 hours
[9] = test system: Fyn; assay type: cell-based, rat

SMILES | levels of TrkC after toxicant exposure [1] | levels of TrkC in brain [2] | brain levels of MeHg ([3]; 1 ppm in drinking water from conception) | brain levels of MeHg ([3]; 3 ppm in drinking water) | cells more oxidized (intracellular redox state) [4] | levels of EGFR in brain [5] | brain mercury in offspring ([6]; 100 ppb MeHg in maternal drinking water) | brain mercury levels in the offspring ([6]; 250 ppb MeHg in maternal drinking water, examined at P14) | reduction in the number of total BrdU+ cells [7] | effect on TMX effects on cancer cells [8] | effect on EtOH-induced Fyn phosphorylation ([9]; co-exposure to NAC) | effect on Aβ-induced increase in phosphorylated Fyn ([9]; co-exposure with Aβ)
[CH3][Hg][Cl] [MeHg, methylmercury] | no reduction in levels of TrkC | not reduced | 1.20 mg/kg | 3.66 mg/kg | approximately 20% | clear and significant reductions | below the levels of detection | 50 ng/g | 20% |  |  | 
CC(=O)N[C@@H](CS)C(=O)O [NAC, N-acetyl-L-cysteine] |  |  |  |  |  |  |  |  |  | not blocked | blocked | reversed
